This is an account of results in patent US10259810B2, “N-sulfonylated pyrazolo[3,4-b]pyridin-6-carboxamides and method of use” (AbbVie S.à.r.l., priority 2015, dated 2019).

One assay concerns the target T1, CFTR ΔF508 (Homo sapiens, UniProt P13569, DEL508-508).
T1 construct: bronchial epithelial cells isolated from CF patients homozygous for the CFTR ΔF508 mutation; McGill University; Asterand; University of North Carolina hAEC-CF; host or cells: primary human bronchial epithelial cells from CF patients homozygous for ΔF508, differentiated at air-liquid interface
The assay can be described thus: Acute TECC assay, primary bronchial epithelial cells of CF patients homozygous for CFTR ΔF508, with and without co-corrector. The assay is classed as cell-based. As to conditions: 24 h, Ieq based on maximum current, normalized to DMSO and positive control; for % Activity at 3 μM (Ieq*): 3 μM compound. How it is done: Primary Bronchial Epithelial Cells Protocol
The TECC (Tranepithelial Clamp Circuit, EP-design) assay measures the functionality of the cystic fibrosis Transmembrane Conductance regulator (CFTR) by measuring the short circuit current (Isc) generated over the basolateral and apical membrane of lung epithelial cells. In TECC the transepithelial potential PD and transepithelial resistance (Rt) are measured in an open circuit and transformed to Ieq using Ohm's law. 24 Wells can be measured simultaneously allowing a higher throughput compared to Ussing chambers.
For this purpose, bronchial epithelial cells isolated from CF patients homozygous for the CFTR ΔF508 mutation (hAEC-CF, Epithelix, Geneva, Switzerland; McGill University, Montreal, Qc; Asterand, Detroit, Mich.; University of North Carolina, Chapel Hill, N.C.) are plated on type IV collagen-coated Transwell® supports (Costar). Human airway epithelia are generated by provision of an air-liquid interface for 21 days to form well-differentiated polarized cultures that resemble in vivo pseudo-stratified ciliated epithelium (Fulcher, M. L., Gabriel, S., Burns, K. A., Yankaskas, J. R., Randell, S. H., 2005. Well-differentiated human airway epithelial cell cultures. Methods Mol. Med. 107, 183-206). The differentiated cells are treated with test corrector compound(s) (corrector alone or in combination with co-corrector, 4-[(2R,4R)-4-({[1-(2,2-difluoro-1,3-benzodioxol-5-yl)cyclopropyl]carbonyl}amino)-7-methoxy-3,4-dihydro-2H-chromen-2-yl]benzoic acid (“acute”) or test corrector compounds, co-corrector and potentiator, N-(3-carbamoyl-5,5,7,7-tetramethyl-4,7-dihydro-5H-thieno[2,3-c]pyran-2-yl)-1H-pyrazole-5-carboxamide (“chronic”) for 24 hours basolaterally to allow sufficient expression of properly folded CFTR protein on the membrane. All compound plates contained negative controls (DMSO) and positive controls (0.15 μM, 4-[(2R,4R)-4-({[1-(2,2-difluoro-1,3-benzodioxol-5-yl)cyclopropyl]carbonyl}amino)-7-(difluoromethoxy)-3,4-dihydro-2H-chromen-2-yl]benzoic acid).
For electrophysiological recording of the “acute” experiments, the human airway epithelia are mounted in the TECC heating plate and kept at 37° C. The epithelia are bathed in a NaCl-Ringer solution (120 mM NaCl, 25 mM NaHCO3, 1.2 mM CaCl2, 1.2 mM MgCl2, 0.8 mM KH2PO4, 0.8 mM K2HPO4, pH 7.4, 5 mM glucose) on both the basolateral and apical sides. Apical amiloride is used to inhibit the endogenous epithelial sodium channel (ENaC) currents while forskolin is applied on both apical and basolateral side to stimulate CFTR. CFTR activity is measured by addition of forskolin followed by addition of a potentiator, N-(3-carbamoyl-5,5,7,7-tetramethyl-4,7-dihydro-5H-thieno[2,3-c]pyran-2-yl)-1H-pyrazole-5-carboxamide, on both sides. The potentiator, 3-amino-N-[(2S)-2-hydroxypropyl]-5-{[4-(trifluoromethoxy)phenyl]sulfonyl}pyridine-2-carboxamide, was used in place of N-(3-carbamoyl-5,5,7,7-tetramethyl-4,7-dihydro-5H-thieno[2,3-c]pyran-2-yl)-1H-pyrazole-5-carboxamide in some assays. Measurements are done during a 20 minute timeframe with recordings every 2 minutes. […] Inhibitor-172, an inhibitor specific for CFTR, is used to test the specificity of the tested compounds. Raw data were normalized to percentage activity values using the equation: 100×(Sample−Negative control)/(Positive control−Negative Control).

The target in a further assay is T2, ΔF508-CFTR (Homo sapiens, UniProt P13569, DEL508-508).
T2 construct: host or cells: CFBE41o-, doxycycline-inducible
T2 sequence (P13569 with tags, fused parts or gaps DEL508-508): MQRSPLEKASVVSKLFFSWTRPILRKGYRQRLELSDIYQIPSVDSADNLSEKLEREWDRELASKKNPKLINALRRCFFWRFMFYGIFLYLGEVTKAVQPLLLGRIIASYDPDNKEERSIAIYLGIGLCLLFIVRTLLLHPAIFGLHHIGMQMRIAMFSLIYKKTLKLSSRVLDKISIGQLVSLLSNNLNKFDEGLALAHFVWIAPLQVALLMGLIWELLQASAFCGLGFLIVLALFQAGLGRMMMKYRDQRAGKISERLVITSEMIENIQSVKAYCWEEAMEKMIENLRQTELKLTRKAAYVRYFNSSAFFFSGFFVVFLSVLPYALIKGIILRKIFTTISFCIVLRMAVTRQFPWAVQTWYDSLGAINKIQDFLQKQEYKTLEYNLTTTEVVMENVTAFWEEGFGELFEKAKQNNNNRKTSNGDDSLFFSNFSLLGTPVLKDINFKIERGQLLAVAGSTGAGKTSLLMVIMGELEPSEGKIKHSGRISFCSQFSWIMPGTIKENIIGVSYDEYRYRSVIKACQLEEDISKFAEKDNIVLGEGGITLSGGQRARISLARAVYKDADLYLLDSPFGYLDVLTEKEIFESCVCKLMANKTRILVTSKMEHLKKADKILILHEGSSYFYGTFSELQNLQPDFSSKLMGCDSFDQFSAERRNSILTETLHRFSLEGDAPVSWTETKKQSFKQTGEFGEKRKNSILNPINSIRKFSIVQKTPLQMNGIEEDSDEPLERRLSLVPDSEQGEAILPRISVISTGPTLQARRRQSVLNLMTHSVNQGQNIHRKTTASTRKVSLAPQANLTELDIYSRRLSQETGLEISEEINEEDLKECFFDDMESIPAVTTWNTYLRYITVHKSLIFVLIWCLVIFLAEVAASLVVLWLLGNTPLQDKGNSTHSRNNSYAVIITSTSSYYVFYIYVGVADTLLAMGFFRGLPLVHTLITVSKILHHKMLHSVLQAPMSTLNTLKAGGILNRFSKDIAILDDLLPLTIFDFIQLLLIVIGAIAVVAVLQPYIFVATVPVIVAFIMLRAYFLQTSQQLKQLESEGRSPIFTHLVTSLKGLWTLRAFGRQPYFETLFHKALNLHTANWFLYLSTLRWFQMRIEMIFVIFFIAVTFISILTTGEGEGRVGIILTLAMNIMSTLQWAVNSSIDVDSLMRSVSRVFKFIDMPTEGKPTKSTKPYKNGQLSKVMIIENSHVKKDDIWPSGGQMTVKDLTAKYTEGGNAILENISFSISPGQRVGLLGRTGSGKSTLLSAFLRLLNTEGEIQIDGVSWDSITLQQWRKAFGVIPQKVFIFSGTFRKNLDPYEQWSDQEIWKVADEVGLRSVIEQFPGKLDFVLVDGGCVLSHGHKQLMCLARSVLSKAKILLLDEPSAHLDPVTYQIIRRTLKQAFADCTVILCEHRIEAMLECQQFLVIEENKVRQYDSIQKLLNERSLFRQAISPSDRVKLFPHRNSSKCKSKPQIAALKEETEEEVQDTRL
The assay can be described thus: CFTR cell surface levels using HRP-tagged ΔF508-CFTR expressing CFBE cells, in the presence of a co-corrector. Type of assay: cell-based. As to conditions: HRP-tagged ΔF508-CFTR CFBE cells, in the presence of 3 μM co-corrector; for EC50: read-out: EC50. Put shortly: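 Chemiluminescent read-out of surface HRP (15 min, dark) after PBS washes. Activity is normalized as 100×(sample−DMSO)/(3 μM co-corrector alone−DMSO).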

T1 sequence (P13569 with tags, fused parts or gaps DEL508-508): as above

As to `CC(C)c1nn(-c2cccc(N3CCC3)c2)c2nc(C(=O)NS(C)(=O)=O)cc(-c3ccc(N4CCOCC4)cc3)c12` [Compound 10, 1-[3-(azetidin-1-yl)phenyl]-N-(methanesulfonyl)-4-[4-(morpholin-4-yl)phenyl]-3-(propan-2-yl)-1H-pyrazolo[3,4-b]pyridine-6-carboxamide], at CFTR ΔF508 (without co-corrector), the “% Activity at 3 μM (Ieq*)” value is 591.84%. At ΔF508-CFTR, the “% Activation” value came out at 606.5% and the EC50 (commonly the concentration giving half of the maximal effect) was found to be 443 nM.
In the case of `CC(C)c1nn(C2CCCCC2)c2nc(C(=O)NS(C)(=O)=O)cc(-c3cnc(N4CCOCC4)nc3)c12` [Compound 11, 1-cyclohexyl-N-(methanesulfonyl)-4-[2-(morpholin-4-yl)pyrimidin-5-yl]-3-(propan-2-yl)-1H-pyrazolo[3,4-b]pyridine-6-carboxamide], on CFTR ΔF508 (without co-corrector), the “% Activity at 3 μM (Ieq*)” value worked out at 351%. In addition, on ΔF508-CFTR, the “% Activation” value is listed as 381.33% and the EC50 amounted to 455 nM.
On to `Cc1nn(-c2ccccc2)c2nc(C(=O)NS(C)(=O)=O)cc(N3CCCCC3)c12` [Compound 13, N-(methanesulfonyl)-3-methyl-1-phenyl-4-(piperidin-1-yl)-1H-pyrazolo[3,4-b]pyridine-6-carboxamide], for which the “% Activity at 3 μM (Ieq*)” value on CFTR ΔF508 (without co-corrector) worked out at 74.32%. Further, the “% Activity at 10 μM (Ieq*)” value at CFTR ΔF508 (10 μM compound, without co-corrector) is recorded as 174.53%. At ΔF508-CFTR, the “% Activation” value is reported as 341.75% and the EC50 was 1470 nM.
Turning to `CS(=O)(=O)NC(=O)c1cc(-c2ccc(N3CCC(C#N)CC3)nc2)c2c(C3CCC3)nn(C3CCCCC3)c2n1` [Compound 104, 4-[6-(4-cyanopiperidin-1-yl)pyridin-3-yl]-3-cyclobutyl-1-cyclohexyl-N-(methanesulfonyl)-1H-pyrazolo[3,4-b]pyridine-6-carboxamide], the “% Activity at 3 μM with co-corrector (Ieq*)” value on CFTR ΔF508 (3 μM compound with co-corrector) is 102.36%. On ΔF508-CFTR, the “% Activation” value turned out to be 411.33% and the EC50 was found to be 344 nM.
